Measurements as given in PubChem BioAssay AID270 (DTP/NCI, 2004).
Values joined by “and” are separate entries in the source; they are usually repeats but may differ in a detail not shown here. Identical values can stand only once. Records with an inconclusive call do not appear.

Tested on: BDF1 mice, s.c. Lewis lung carcinoma, T/C %
Assay: NCI In Vivo Anticancer Drug Screen. Data for tumor model Lewis Lung Carcinoma (subcutaneous) in B6D2F1 (BDF1) mice
In short: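 Readout: survival or tumor size, expressed as treated (T) over vehicle control (C). Transplantable tumor implanted in mice; compound given to the treated group.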

[1] = endpoint: mean tumor weight, dose: 25.0 mg/kg/injection, schedule: Q01DX011 (ip), vehicle: saline, higher = larger tumour
[2] = endpoint: mean tumor weight, dose: 50.0 mg/kg/injection, schedule: Q01DX011 (ip), vehicle: saline, higher = larger tumour
[3] = endpoint: mean tumor weight, dose: 200.0 mg/kg/injection, schedule: Q01DX011 (ip), vehicle: carboxymethylcellulose (CMC), higher = larger tumour

`CO[C@H]1Nc2c(ccc(C)c2O)C(=O)N2C=C(/C=C/C(N)=O)C[C@@H]12` was tested, and the T/C (endpoint: median survival time, dose: 0.03 mg/kg/injection, schedule: Q04DX003 (ip), vehicle: saline with Tween-80, higher = longer survival) was 92 % of control, the T/C (endpoint: median survival time, dose: 0.04 mg/kg/injection, schedule: Q04DX003 (ip), vehicle: saline with Tween-80, higher = longer survival) was 103 % of control and the T/C (endpoint: median survival time, dose: 0.06 mg/kg/injection, schedule: Q04DX003 (ip), vehicle: saline with Tween-80, higher = longer survival) was 89 % of control and 98 % of control. For the same molecule, the T/C (endpoint: median survival time, dose: 0.13 mg/kg/injection, schedule: Q04DX003 (ip), vehicle: saline with Tween-80, higher = longer survival) was 98 % of control, the T/C (endpoint: median survival time, dose: 0.25 mg/kg/injection, schedule: Q04DX003 (ip), vehicle: saline with Tween-80, higher = longer survival) was 99 % of control and the T/C (endpoint: median survival time, dose: 50.0 micrograms/kg/injection, schedule: Q04DX003 (ip), vehicle: saline + alcohol, higher = longer survival) was 107 % of control. For the same molecule, the T/C (endpoint: median survival time, dose: 100.0 micrograms/kg/injection, schedule: Q04DX003 (ip), vehicle: saline + alcohol, higher = longer survival) was 106 % of control and the T/C (endpoint: median survival time, dose: 200.0 micrograms/kg/injection, schedule: Q04DX003 (ip), vehicle: saline + alcohol, higher = longer survival) was 97 % of control.

`CCNC1=C(N2CC2)C(=O)C(NCC)=C(N2CC2)C1=O` was tested, and the T/C (endpoint: median survival time, dose: 0.37 mg/kg/injection, schedule: Q01DX009 (ip), vehicle: saline, higher = longer survival) was 115 % of control and the T/C (endpoint: median survival time, dose: 0.75 mg/kg/injection, schedule: Q01DX009 (ip), vehicle: saline, higher = longer survival) was 121 % of control.

`CS(=O)(=O)OCC(=O)NCCNC(=O)COS(C)(=O)=O` was tested, and the T/C [1] was 98 % of control, the T/C [2] was 90 % of control and the T/C (endpoint: mean tumor weight, dose: 100.0 mg/kg/injection, schedule: Q01DX011 (ip), vehicle: saline, higher = larger tumour) was 94 % of control. The T/C (endpoint: mean tumor weight, dose: 200.0 mg/kg/injection, schedule: Q01DX011 (ip), vehicle: saline, higher = larger tumour) was 82 % of control.

For `CCCCCCCCCCCCCCCCCCOC(=O)CCSCCC(=O)OCCCCCCCCCCCCCCCCCC`, the T/C (endpoint: mean tumor weight, dose: 133.0 mg/kg/injection, schedule: Q01DX011 (ip), vehicle: carboxymethylcellulose (CMC), higher = larger tumour) was 117 % of control, the T/C [3] was 88 % of control and the T/C (endpoint: mean tumor weight, dose: 300.0 mg/kg/injection, schedule: Q01DX011 (ip), vehicle: carboxymethylcellulose (CMC), higher = larger tumour) was 101 % of control. For the same molecule, the T/C (endpoint: mean tumor weight, dose: 450.0 mg/kg/injection, schedule: Q01DX011 (ip), vehicle: carboxymethylcellulose (CMC), higher = larger tumour) was 86 % of control, the T/C (endpoint: mean tumor weight, dose: 500.0 mg/kg/injection, schedule: Q01DX011 (ip), vehicle: other, higher = larger tumour) was 165 % of control and the T/C (endpoint: mean tumor weight, dose: 750.0 mg/kg/injection, schedule: Q01DX011 (ip), vehicle: other, higher = larger tumour) was 121 % of control.

For `CN(C)CCOC(=O)COc1ccc(Cl)cc1`, the T/C (endpoint: median survival time, dose: 200.0 mg/kg/injection, schedule: Q01DX005 (ip), vehicle: saline, higher = longer survival) was 103 % of control and 116 % of control and the T/C (endpoint: median survival time, dose: 300.0 mg/kg/injection, schedule: Q01DX005 (ip), vehicle: saline, higher = longer survival) was 119 % of control.

In the case of `CO[C@H]1/C=C/O[C@@]2(C)Oc3c(C)c(O)c4c(O)c(c(/C=N/N5C(C)CN(Cc6ccccc6)CC5C)c(O)c4c3C2=O)NC(=O)/C(C)=C\C=C\[C@H](C)[C@H](O)[C@@H](C)[C@@H](O)[C@@H](C)[C@H](OC(C)=O)[C@@H]1C` (stereo partly specified), the T/C (endpoint: mean tumor weight, dose: 50.0 mg/kg/injection, schedule: Q01DX009 (ip), vehicle: saline with Tween-80, higher = larger tumour) was 112 % of control, the T/C (endpoint: mean tumor weight, dose: 100.0 mg/kg/injection, schedule: Q01DX009 (ip), vehicle: saline with Tween-80, higher = larger tumour) was 93 % of control and the T/C (endpoint: mean tumor weight, dose: 200.0 mg/kg/injection, schedule: Q01DX009 (ip), vehicle: saline with Tween-80, higher = larger tumour) was 65 % of control. The T/C (endpoint: mean tumor weight, dose: 400.0 mg/kg/injection, schedule: Q01DX009 (ip), vehicle: saline with Tween-80, higher = larger tumour) was 47 % of control, the T/C (endpoint: median survival time, dose: 1.6 mg/kg/injection, schedule: Q02DX Z (oral), vehicle: Klucel (hydroxypropylcellulose) (HPC), higher = longer survival) was 95 % of control and the T/C (endpoint: median survival time, dose: 3.12 mg/kg/injection, schedule: Q02DX Z (oral), vehicle: Klucel (hydroxypropylcellulose) (HPC), higher = longer survival) was 91 % of control. For the same molecule, the T/C (endpoint: median survival time, dose: 12.5 mg/kg/injection, schedule: Q02DX Z (oral), vehicle: Klucel (hydroxypropylcellulose) (HPC), higher = longer survival) was 87 % of control, the T/C (endpoint: median survival time, dose: 25.0 mg/kg/injection, schedule: Q02DX Z (oral), vehicle: Klucel (hydroxypropylcellulose) (HPC), higher = longer survival) was 91 % of control and the T/C (endpoint: median survival time, dose: 50.0 mg/kg/injection, schedule: Q02DX Z (oral), vehicle: Klucel (hydroxypropylcellulose) (HPC), higher = longer survival) was 95 % of control. For the same molecule, the T/C (endpoint: median survival time, dose: 100.0 mg/kg/injection, schedule: Q01DX009 (ip), vehicle: saline with Tween-80, higher = longer survival) was 112 % of control, the T/C (endpoint: median survival time, dose: 100.0 mg/kg/injection, schedule: Q02DX Z (oral), vehicle: Klucel (hydroxypropylcellulose) (HPC), higher = longer survival) was 94 % of control and the T/C (endpoint: median survival time, dose: 200.0 mg/kg/injection, schedule: Q01DX009 (ip), vehicle: saline with Tween-80, higher = longer survival) was 100 % of control. The T/C (endpoint: median survival time, dose: 200.0 mg/kg/injection, schedule: Q02DX Z (oral), vehicle: Klucel (hydroxypropylcellulose) (HPC), higher = longer survival) was 102 % of control.

In the case of `O=S1(=O)CCCO1`, the T/C (endpoint: mean tumor weight, dose: 10.0 mg/kg/injection, schedule: Q01DX011 (ip), vehicle: saline, higher = larger tumour) was 109 % of control, the T/C (endpoint: mean tumor weight, dose: 20.0 mg/kg/injection, schedule: Q01DX011 (ip), vehicle: saline, higher = larger tumour) was 102 % of control and the T/C (endpoint: mean tumor weight, dose: 40.0 mg/kg/injection, schedule: Q01DX011 (ip), vehicle: saline, higher = larger tumour) was 78 % of control.

`Nc1cc(Cl)cc(Cl)c1` was tested, and the T/C (endpoint: mean tumor weight, dose: 29.0 mg/kg/injection, schedule: Q01DX011 (ip), vehicle: other, higher = larger tumour) was 90 % of control, the T/C (endpoint: mean tumor weight, dose: 44.0 mg/kg/injection, schedule: Q01DX011 (ip), vehicle: other, higher = larger tumour) was 65 % of control and the T/C (endpoint: mean tumor weight, dose: 66.0 mg/kg/injection, schedule: Q01DX011 (ip), vehicle: other, higher = larger tumour) was 98 % of control.

In the case of `CCCCSc1nc(N)nc2c1ncn2CC(C)CC` (stereo unspecified), the T/C (endpoint: mean tumor weight, dose: 75.0 mg/kg/injection, schedule: Q01DX011 (ip), vehicle: other, higher = larger tumour) was 103 % of control, the T/C (endpoint: mean tumor weight, dose: 150.0 mg/kg/injection, schedule: Q01DX011 (ip), vehicle: other, higher = larger tumour) was 50 % of control and the T/C (endpoint: mean tumor weight, dose: 300.0 mg/kg/injection, schedule: Q01DX011 (ip), vehicle: other, higher = larger tumour) was 53 % of control.

`CC[C@@H]1O[C@@H]([C@@H]2CC[C@](O)([C@]3(C)CC[C@@H]([C@@H](C)[C@@]4(O)CC[C@H](C)[C@@H](C[C@@]5(O)O[C@@H]([C@@H](C)[C@H](O)C[C@H]6CC[C@H](C)[C@@H]([C@@H](C)C(=O)O)O6)CC[C@@H]5C)O4)O3)O2)CC[C@@]1(C)O` was tested, and the T/C (endpoint: median survival time, dose: 0.12 mg/kg/injection, schedule: Q01DX009 (ip), vehicle: saline, higher = longer survival) was 106 % of control, the T/C (endpoint: median survival time, dose: 0.25 mg/kg/injection, schedule: Q01DX009 (ip), vehicle: saline, higher = longer survival) was 110 % of control and the T/C (endpoint: median survival time, dose: 0.5 mg/kg/injection, schedule: Q01DX009 (ip), vehicle: saline, higher = longer survival) was 106 % of control. The T/C (endpoint: median survival time, dose: 1.0 mg/kg/injection, schedule: Q01DX009 (ip), vehicle: saline, higher = longer survival) was 97 % of control.

For `CC(=O)Nc1ccc2nc3ccc(NC(C)=O)cc3[n+](-c3ccccc3)c2c1`, the T/C (endpoint: mean tumor weight, dose: 12.5 mg/kg/injection, schedule: Q01DX011 (ip), vehicle: saline, higher = larger tumour) was 61 % of control, the T/C [1] was 79 % of control and the T/C [2] was 59 % of control.

`OCC1=CCN2CC[C@@H](O)[C@@H]12` was tested, and the T/C (endpoint: mean tumor weight, dose: 25.0 mg/kg/injection, schedule: Q01DX011 (ip), vehicle: carboxymethylcellulose (CMC), higher = larger tumour) was 122 % of control, the T/C (endpoint: mean tumor weight, dose: 50.0 mg/kg/injection, schedule: Q01DX011 (ip), vehicle: carboxymethylcellulose (CMC), higher = larger tumour) was 117 % of control and the T/C (endpoint: mean tumor weight, dose: 100.0 mg/kg/injection, schedule: Q01DX011 (ip), vehicle: carboxymethylcellulose (CMC), higher = larger tumour) was 111 % of control. The T/C [3] was 106 % of control.

In the case of `CCC1=C(c2cc(Cl)c3ccccc3c2OCC(=O)O)OC(CC)(C(=O)c2cc(Cl)c3ccccc3c2OCC(=O)O)CC1` (stereo unspecified), the T/C (endpoint: mean tumor weight, dose: 2.3 mg/kg/injection, schedule: Q01DX011 (ip), vehicle: carboxymethylcellulose (CMC), higher = larger tumour) was 82 % of control and the T/C (endpoint: mean tumor weight, dose: 3.5 mg/kg/injection, schedule: Q01DX011 (ip), vehicle: carboxymethylcellulose (CMC), higher = larger tumour) was 76 % of control.

In the case of `CCCCCC[N+](CCCCCC)(CCCCCC)CCCCCC`, the T/C (endpoint: median survival time, dose: 0.75 mg/kg/injection, schedule: Q01DX009 (ip), vehicle: Klucel (hydroxypropylcellulose) (HPC), higher = longer survival) was 110 % of control, the T/C (endpoint: median survival time, dose: 1.5 mg/kg/injection, schedule: Q01DX009 (ip), vehicle: Klucel (hydroxypropylcellulose) (HPC), higher = longer survival) was 91 % of control and the T/C (endpoint: median survival time, dose: 3.0 mg/kg/injection, schedule: Q01DX009 (ip), vehicle: Klucel (hydroxypropylcellulose) (HPC), higher = longer survival) was 102 % of control.

For `COc1c(OC)c(OC)c2c(=O)cc(-c3ccc(OC(C)=O)cc3)oc2c1OC`, the T/C (endpoint: mean tumor weight, dose: 50.0 mg/kg/injection, schedule: Q01DX010 (sc), vehicle: steriod suspending solution, higher = larger tumour) was 97 % of control, the T/C (endpoint: mean tumor weight, dose: 100.0 mg/kg/injection, schedule: Q01DX010 (sc), vehicle: steriod suspending solution, higher = larger tumour) was 74 % of control and the T/C (endpoint: mean tumor weight, dose: 200.0 mg/kg/injection, schedule: Q01DX010 (sc), vehicle: steriod suspending solution, higher = larger tumour) was 76 % of control. For the same molecule, the T/C (endpoint: mean tumor weight, dose: 400.0 mg/kg/injection, schedule: Q01DX010 (sc), vehicle: steriod suspending solution, higher = larger tumour) was 77 % of control.

For `Cc1cc(O)c2cc3c(O)c(O)ccc3cc2c1`, the T/C (endpoint: mean tumor weight, dose: 0.25 mg/kg/injection, schedule: Q01DX011 (ip), vehicle: saline, higher = larger tumour) was 86 % of control, the T/C (endpoint: mean tumor weight, dose: 0.5 mg/kg/injection, schedule: Q01DX011 (ip), vehicle: saline, higher = larger tumour) was 116 % of control and the T/C (endpoint: mean tumor weight, dose: 1.0 mg/kg/injection, schedule: Q01DX011 (ip), vehicle: saline, higher = larger tumour) was 62 % of control. For the same molecule, the T/C (endpoint: mean tumor weight, dose: 2.0 mg/kg/injection, schedule: Q01DX011 (ip), vehicle: saline, higher = larger tumour) was 31 % of control and 52 % of control and the T/C (endpoint: mean tumor weight, dose: 4.0 mg/kg/injection, schedule: Q01DX011 (ip), vehicle: saline, higher = larger tumour) was 36 % of control.

For `CNNCc1ccc(C(=O)NC(C)C)cc1`, the T/C (endpoint: median survival time, dose: 25.0 mg/kg/injection, schedule: Q08HX024 (ip), vehicle: saline, higher = longer survival) was 100 % of control and the T/C (endpoint: median survival time, dose: 50.0 mg/kg/injection, schedule: Q08HX024 (ip), vehicle: saline, higher = longer survival) was 112 % of control.
